Laboratory results: patent US12485110B2, “Use of ergothioneine for extending lifespan or improving healthspan” (NANJING NUTRABUILDING BIO-TECH CO., LTD., priority 2022, dated 2025)
Entries after “also recorded” stand apart in the source; their conditions may differ.

Legend:
C. elegans [1] = test: Lifespan assay (Automated Lifespan Machine); assay type: in vivo; conditions: for Maximum lifespan: 95th percentile of lifespans; for Median lifespan: N2 wild type, day 0 = day 1 of adulthood; for Mean lifespan: area under survival curve; for Lifespan / survival relative to vehicle control (in words): 5.0 mM (highest treatment group)
Text: N2 (Bristol) wild type strain has been used in this application.
To prevent chemical modification or metabolism of the test article by the food bacteria, worms were fed on a lawn of UV-killed bacteria (UV-i bacteria). An overnight culture of E. coli strain WP-2 was pelleted, washed, filtered, and irradiated. A suspension of UV-i bacteria was spotted on NGM agar containing Streptomycin to inhibit the growth of contaminating bacteria. The quantity and distribution of food bacteria were calibrated to ensure adequate access to food for the duration of assay while maintaining visibility of the worms.
The ALM used herein is based on the Caenorhabditis elegans lifespan machine published by Stroustrup et. al (Stroustrup, N. et al. The Caenorhabditis elegans Lifespan Machine. Nat Methods 10, 665-670 (2013)), with proprietary modifications to improve temperature stability and image acquisition. The scanner unit consists of a modified EPSON V850 and images are processed and analyzed using the ALM software (see id.). The machine time-of-death calls are trained and validated using the “storyboarding” feature of the ALM software.
The lifespan assay was designed and performed according to published and validated methods (Amrit, F. R. G., Ratnappan, R., Keith, S. A. & Ghazi, A. The C. elegans lifespan assay toolkit. Methods 68, 465-475 (2014)), using a modified version of the Automated Lifespan Machine (Stroustrup, N. et al. The Caenorhabditis elegans Lifespan Machine. Nat Methods 10, 665-670 (2013)). Worms were age synchronized by bleaching and eggs were plated directly onto NGM agar seeded with UV-i bacteria (Day 1, hatch). On Day 3, when the worms had reached the late L4 stage, they were transferred to dishes containing 100 μM 5-Fluorodeoxyuridine (FUdR) to suppress progeny. On day 5, the worms were washed off the dishes, and 30-50 worms were plated on each scanner dish. Plates were immobilized inverted on the bed of an Automated Lifespan Machine which scanned two images per hour of the plates continuously for the next 40 days.
Time of death calls exported from the ALM software was analyzed and plotted using the Lifelines software package developed by Cam Davidson-Pilon et. al (Lifelines Version: v0.25.9). Additional analysis performed using the OASIS2 analysis software (Seong Kyu Han et. al. OASIS 2: online application for survival analysis 2 with features for the analysis of maximal lifespan and healthspan in aging research. Oncotarget. 7:56147-56152. (2016)).
The lifespan assay was initiated by expanding all replicate groups to more than 1000 worms, then synchronizing by bleaching and allowing larval worms to hatch and arrest. To eliminate the effect of bacterial metabolism and growth on lifespan of C. elegans (wild type, and not over express β-amyloid peptide) worms, synchronized worms were only exposed to dead food bacteria. To suppress progeny, worms were transferred to media containing 5-Fluorodeoxyuridine (FUdR) within 54-60 hours post-plating. Worms were inspected 24 and 48 hours after this transfer to confirm infertility. Finally, the worms were inspected for general health and morphology before transferring to scanner plates. The scanner plates were incubated for an additional 2 days and inspected again before loading onto scanners.
To obtain high-resolution lifespan data and eliminate confounding factors such as worm handling and operator bias, lifespan data was collected using an Automated Lifespan Machine (ALM) (Stroustrup, N. et al. The Caenorhabditis elegans Lifespan Machine. Nat Methods 10, 665-670 (2013)). Three biological replicates, derived from synchronizing three independently maintained lines of N2 worms, were distributed across instruments. Images of the worms were then collected for the next 35 days with no interruption or manipulations. Some plates were excluded after quality checks, but plate number and worm count for all replicates exceeded the threshold for statistical significance (Table 1, row 1).

C. elegans [2] = test: Movement and healthspan analysis (worm activity, morphology, circularity); assay type: in vivo
Text: Worm movement was tracked from the images acquired by the ALM during the lifespan assay. Worm size and movement features were extracted and analyzed using custom software.
To measure healthspan, active worms were identified using the ALM scanner images from the lifespan assay (see Example 2). The worms' spatial location on the plate and their morphology were quantified throughout their lifespan to assess healthspan.
Worm Activity serves as a proxy for animal health. Changes in spatial distribution of the worms between time points is used to derive aggregate movement for the population over time. Worm Activity is described by two complementary measurements of aggregate movement, Centroid Distance and Spatial Distribution: • Centroid Distance calculates a geometric center for each individual worm, and then measures the minimum collective distance that a group of worms moved between time points. It achieves measurement of the changes in spatial distribution between time-points. • Spatial Distribution uses changes in worm contours between time points to measure the changes in the spatial distribution of the worms' bodies. The normalized distribution of these distances in the population provides a measure of how much the group of worms altered their positions and posture on the plate between two time-points.
For both of these Activity metrics, a plot with higher numbers indicates good health, and all measures are normalized to fall between 0 and 1.
Worm morphology is measured from the worm contours detected in the images. In the process of aging, worms become shorter and stouter over time and their shape is an indicator of their overall health and biological age. The Length is calculated from the central spline fitted to the worm contour and Width is measured from each worm's widest point. The worms' posture also changes with age as they lose the ability to maintain an elongated position. Average Circularity measures how close the shape and posture come to being enclosed by a circle.
Each of these measures are obtained by averaging data for all active worms detected on a plate, then averaging across different replicate plates of the same condition. All measurements are based on worms that are still alive and moving at the time of quantification. All measures start when worms are placed on the scanner at day 3 of adulthood.
Average Circularity. The Average Circularity Assay indicates worm heath by describing how closely the shape and posture of the worms is enclosed within a circle. Healthy, active worms maintain an elongated, albeit sinusoidal posture. As unhealthy and aged worms lose muscle function, they increasingly adopt a curled, bunched, or folded state in addition to a stout and wrinkled morphology.

SMILES: C[N+](C)(C)[C@@H](Cc1c[nH]c(=S)[nH]1)C(=O)[O-] [Ergo, Ergothioneine]
- Age in days at 25% mortality (C. elegans [1]; 0.1 mM): 17.97 days
- Age in days at 50% mortality (C. elegans [1]; 0.1 mM): 24.16 days
- Age in days at 75% mortality (C. elegans [1]; 0.1 mM): 28.15 days
- Age in days at 90% mortality (C. elegans [1]; 0.1 mM): 30.83 days
- Age in days at 100% mortality (C. elegans [1]; 0.1 mM): 39 days
- Dose dependence of lifespan (Kaplan-Meier, FIG. 4A) (C. elegans [1]; 0.1 mM, 0.5 mM and 5.0 mM): dose-dependent increase in lifespan
- Maximum lifespan (C. elegans [1]; 0.1 mM): 33.2 days
- Median lifespan (C. elegans [1]; 0.1 mM): 24.2 days
- Mean lifespan (C. elegans [1]; 0.1 mM): 23.4 days
- Age in days at 25% mortality (C. elegans [1]; 0.5 mM): 18.05 days
- Age in days at 50% mortality (C. elegans [1]; 0.5 mM): 24.22 days
- Age in days at 75% mortality (C. elegans [1]; 0.5 mM): 28.37 days
- Age in days at 90% mortality (C. elegans [1]; 0.5 mM): 30.84 days
- Age in days at 100% mortality (C. elegans [1]; 0.5 mM): 37.26 days
- Maximum lifespan (C. elegans [1]; 0.5 mM): 33.3 days
- Median lifespan (C. elegans [1]; 0.5 mM): 24.2 days
- Mean lifespan (C. elegans [1]; 0.5 mM): 23.5 days
- Age in days at 25% mortality (C. elegans [1]; 5.0 mM): 21.04 days
- Age in days at 50% mortality (C. elegans [1]; 5.0 mM): 25.92 days
- Age in days at 75% mortality (C. elegans [1]; 5.0 mM): 29.73 days
- Age in days at 90% mortality (C. elegans [1]; 5.0 mM): 32.05 days
- Age in days at 100% mortality (C. elegans [1]; 5.0 mM): 38.81 days
- Lifespan / survival relative to vehicle control (in words) (C. elegans [1]): higher survival than the vehicle control at all timepoints
- Lifespan / survival relative to vehicle control (in words) (C. elegans [1]; listed as Ergothioneine): significant positive increase in lifespan; also recorded: statistically significant shift in survival
- Lifespan increase compared with Resveratrol positive control (C. elegans [1]; 5.0 mM vs 0.1 mM Resveratrol, log-rank tests): similarly to, but slightly less than the Resveratrol positive control
- Maximum lifespan (C. elegans [1]; 5.0 mM): 34.6 days
- Median lifespan (C. elegans [1]; 5.0 mM): 25.9 days
- Mean lifespan (C. elegans [1]; 5.0 mM): 25.3 days
- Aggregate movement (Centroid Distance and Spatial Distribution, FIGS. 5A-5B) (C. elegans [2]; 5 mM, over the duration of lifespan): more vigorous movement
- Average circularity (FIG. 7) (C. elegans [2]; ergothioneine-treated worms vs control, peaking at around 16 days): only slight differences
- Worm morphology (length, width, area, FIGS. 6A-6C) (C. elegans [2]; up to the 5 mM dosage, over the lifespan): did not produce detectable changes in morphology
